≈ marks a conversion by molar mass, not a printed value.

A word on the MIC: it is the lowest concentration that inhibits growth of the organism.

Holding throughout (type): functional
Experiment [1] has as its system Staphylococcus aureus. The experiment can be described thus: Antibacterial activity against methicillin-resistant Staphylococcus aureus N315 measured by Muller-Hinton broth based microdilution assay.
Another experiment concerns Enterococcus faecalis. The experiment can be described thus: Antibacterial activity against Enterococcus faecalis measured by Muller-Hinton broth based microdilution assay. In general terms: Dilution methods test growth across graded concentrations, often in twofold steps.
For experiment [2], the system named is Staphylococcus aureus. Put plainly: Antibacterial activity against Staphylococcus aureus measured by Muller-Hinton broth based microdilution assay.
Experiment [3] concerns Staphylococcus aureus. The experiment can be described thus: Antibacterial activity against Staphylococcus aureus ATCC 25923 measured by Muller-Hinton broth based microdilution assay.
For experiment [4], the system named is Staphylococcus aureus. Put plainly: Antibacterial activity against Staphylococcus aureus ATCC 29213 measured by Muller-Hinton broth based microdilution assay.
The subject of another experiment is Klebsiella pneumoniae. The experiment can be described thus: Antibacterial activity against Klebsiella pneumoniae measured by Muller-Hinton broth based microdilution assay.
The test system of experiment [5] is Escherichia coli. The experiment can be described thus: Antibacterial activity against Escherichia coli measured by Muller-Hinton broth based microdilution assay.
Experiment [6] has as its system Pseudomonas aeruginosa. The experiment can be described thus: Antibacterial activity against Pseudomonas aeruginosa measured by Muller-Hinton broth based microdilution assay.
The next experiment relates to Acinetobacter baumannii. Put plainly: Antibacterial activity against Acinetobacter baumannii measured by Muller-Hinton broth based microdilution assay.
In experiment [7] the test system is Pseudomonas aeruginosa. The experiment can be described thus: Antibacterial activity against Pseudomonas aeruginosa ATCC 27853 measured by Muller-Hinton broth based microdilution assay.
Experiment [8] has as its system Escherichia coli. The experiment can be described thus: Antibacterial activity against Escherichia coli ATCC 25922 measured by Muller-Hinton broth based microdilution assay.

For `O=C1c2cccc3c(N/N=C/c4ccc(C(F)(F)F)cc4)ccc(c23)C(=O)N1C(CO)CO`, the minimum inhibitory concentration (MIC) was found to be 64 µg/mL (≈ 140 µM) against Staphylococcus aureus [1]; 4 µg/mL (≈ 8.74 µM) in the experiment with Enterococcus faecalis; 8 µg/mL (≈ 17.5 µM) in the experiment on Staphylococcus aureus [2]; 32 µg/mL (≈ 70 µM) with Staphylococcus aureus [3]; 2 µg/mL (≈ 4.37 µM) in the experiment with Staphylococcus aureus [4]; 4 µg/mL (≈ 8.74 µM) against Klebsiella pneumoniae. For the same compound, the minimal inhibitory concentration (MIC) with Escherichia coli [5] is 32 µg/mL (≈ 70 µM); against Pseudomonas aeruginosa [6], 16 µg/mL (≈ 35 µM); against Acinetobacter baumannii it was 64 µg/mL (≈ 140 µM); against Pseudomonas aeruginosa [7], 8 µg/mL (≈ 17.5 µM); against Escherichia coli [8], 32 µg/mL (≈ 70 µM).
Take `N#Cc1ccc(/C=N/Nc2ccc3c4c(cccc24)C(=O)N(C(CO)CO)C3=O)cc1`: the MIC against Staphylococcus aureus [1] worked out at 32 µg/mL (≈ 77.2 µM); against Enterococcus faecalis it was 8 µg/mL (≈ 19.3 µM); against Staphylococcus aureus [2], 4 µg/mL (≈ 9.65 µM); against Staphylococcus aureus [3], 8 µg/mL (≈ 19.3 µM); against Staphylococcus aureus [4], 2 µg/mL (≈ 4.83 µM); in the experiment on Klebsiella pneumoniae, 2 µg/mL (≈ 4.83 µM). The MIC came to 32 µg/mL (≈ 77.2 µM) against Escherichia coli [5]; 32 µg/mL (≈ 77.2 µM) against Pseudomonas aeruginosa [6]; 32 µg/mL (≈ 77.2 µM) in the experiment with Acinetobacter baumannii; 4 µg/mL (≈ 9.65 µM) in the experiment on Pseudomonas aeruginosa [7]; 16 µg/mL (≈ 38.6 µM) in the experiment with Escherichia coli [8].
On to `O=C1c2cccc3c(N/N=C/c4ccc(O)c(Br)c4)ccc(c23)C(=O)N1C(CO)CO`, for which the MIC amounted to 8 µg/mL (≈ 16.5 µM) with Staphylococcus aureus [1]; 4 µg/mL (≈ 8.26 µM) against Enterococcus faecalis; 16 µg/mL (≈ 33 µM) in the experiment on Staphylococcus aureus [2]; 64 µg/mL (≈ 132 µM) against Staphylococcus aureus [3]; 64 µg/mL (≈ 132 µM) in the experiment with Staphylococcus aureus [4]; 16 µg/mL (≈ 33 µM) against Klebsiella pneumoniae. The MIC in the experiment on Escherichia coli [5] was found to be 64 µg/mL (≈ 132 µM); with Pseudomonas aeruginosa [6] it was 64 µg/mL (≈ 132 µM); in the experiment with Acinetobacter baumannii, 64 µg/mL (≈ 132 µM); in the experiment on Pseudomonas aeruginosa [7], 16 µg/mL (≈ 33 µM); with Escherichia coli [8], 32 µg/mL (≈ 66.1 µM).
Regarding `O=C1c2cccc3c(N/N=C/c4nc5ccccc5[nH]4)ccc(c23)C(=O)N1C(CO)CO`, the minimal inhibitory concentration (MIC) is 64 µg/mL (≈ 149 µM) in the experiment with Staphylococcus aureus [1]; 64 µg/mL (≈ 149 µM) against Enterococcus faecalis; 32 µg/mL (≈ 74.5 µM) in the experiment with Staphylococcus aureus [2]; 64 µg/mL (≈ 149 µM) in the experiment on Staphylococcus aureus [3]; 128 µg/mL (≈ 298 µM) against Staphylococcus aureus [4]; 32 µg/mL (≈ 74.5 µM) against Klebsiella pneumoniae. Also, the minimal inhibitory concentration (MIC) with Escherichia coli [5] was 8 µg/mL (≈ 18.6 µM); in the experiment on Pseudomonas aeruginosa [6], 16 µg/mL (≈ 37.3 µM); in the experiment on Acinetobacter baumannii it was 64 µg/mL (≈ 149 µM); against Pseudomonas aeruginosa [7], 64 µg/mL (≈ 149 µM); in the experiment with Escherichia coli [8] it was 32 µg/mL (≈ 74.5 µM).
Consider `O=C(Cn1cc(/C=N/Nc2ccc3c4c(cccc24)C(=O)N(C(CO)CO)C3=O)c2ccccc21)N1CCOCC1`, for which the minimum inhibitory concentration (MIC) against Staphylococcus aureus [1] came out at 256 µg/mL (≈ 461 µM); in the experiment on Enterococcus faecalis, 128 µg/mL (≈ 230 µM); against Staphylococcus aureus [2], 128 µg/mL (≈ 230 µM); against Staphylococcus aureus [3] it was 64 µg/mL (≈ 115 µM); against Staphylococcus aureus [4] it was 128 µg/mL (≈ 230 µM); in the experiment on Klebsiella pneumoniae, 256 µg/mL (≈ 461 µM). For the same compound, the MIC stood at 256 µg/mL (≈ 461 µM) against Escherichia coli [5]; 256 µg/mL (≈ 461 µM) in the experiment with Pseudomonas aeruginosa [6]; 128 µg/mL (≈ 230 µM) with Acinetobacter baumannii; 128 µg/mL (≈ 230 µM) against Pseudomonas aeruginosa [7]; 256 µg/mL (≈ 461 µM) against Escherichia coli [8].
Consider `O=C1c2cccc(O)c2C(=O)c2c(O)cc(/C=N/Nc3ccc4c5c(cccc35)C(=O)N(C(CO)CO)C4=O)cc21`, for which the MIC in the experiment on Staphylococcus aureus [1] turned out to be 64 µg/mL (≈ 116 µM); against Enterococcus faecalis, 64 µg/mL (≈ 116 µM); in the experiment with Staphylococcus aureus [2], 32 µg/mL (≈ 58 µM); in the experiment on Staphylococcus aureus [3] it was 64 µg/mL (≈ 116 µM); with Staphylococcus aureus [4], 128 µg/mL (≈ 232 µM); with Klebsiella pneumoniae it was 32 µg/mL (≈ 58 µM). For the same compound, the minimal inhibitory concentration (MIC) came out at 8 µg/mL (≈ 14.5 µM) with Escherichia coli [5]; 16 µg/mL (≈ 29 µM) in the experiment with Pseudomonas aeruginosa [6]; 64 µg/mL (≈ 116 µM) in the experiment with Acinetobacter baumannii; 64 µg/mL (≈ 116 µM) in the experiment on Pseudomonas aeruginosa [7]; 32 µg/mL (≈ 58 µM) against Escherichia coli [8].
Consider `O=C1c2cccc3c(N/N=C/c4ccc(Cl)cc4Cl)ccc(c23)C(=O)N1C(CO)CO`, for which the MIC in the experiment on Staphylococcus aureus [1] was 32 µg/mL (≈ 69.8 µM); with Enterococcus faecalis it was 64 µg/mL (≈ 140 µM); in the experiment with Staphylococcus aureus [2] it was 32 µg/mL (≈ 69.8 µM); in the experiment with Staphylococcus aureus [3], 8 µg/mL (≈ 17.5 µM); with Staphylococcus aureus [4], 8 µg/mL (≈ 17.5 µM); against Klebsiella pneumoniae it was 128 µg/mL (≈ 279 µM). For the same compound, the minimum inhibitory concentration (MIC) with Escherichia coli [5] was 256 µg/mL (≈ 559 µM); against Pseudomonas aeruginosa [6], 128 µg/mL (≈ 279 µM); with Acinetobacter baumannii, 128 µg/mL (≈ 279 µM); in the experiment on Pseudomonas aeruginosa [7], 128 µg/mL (≈ 279 µM); against Escherichia coli [8], 256 µg/mL (≈ 559 µM).
On to `O=C1c2cccc3c(N/N=C/c4cc(Cl)ccc4O)ccc(c23)C(=O)N1C(CO)CO`, for which the minimum inhibitory concentration (MIC) with Staphylococcus aureus [1] amounted to 1 µg/mL (≈ 2.27 µM); in the experiment on Enterococcus faecalis, 16 µg/mL (≈ 36.4 µM); against Staphylococcus aureus [2], 32 µg/mL (≈ 72.8 µM); against Staphylococcus aureus [3], 2 µg/mL (≈ 4.55 µM); with Staphylococcus aureus [4] it was 64 µg/mL (≈ 146 µM); with Klebsiella pneumoniae, 64 µg/mL (≈ 146 µM). Further, the MIC in the experiment on Escherichia coli [5] is 64 µg/mL (≈ 146 µM); against Pseudomonas aeruginosa [6], 2 µg/mL (≈ 4.55 µM); in the experiment on Acinetobacter baumannii, 32 µg/mL (≈ 72.8 µM); in the experiment with Pseudomonas aeruginosa [7], 32 µg/mL (≈ 72.8 µM); against Escherichia coli [8], 32 µg/mL (≈ 72.8 µM).
For the compound `O=C1c2cccc3c(N/N=C/c4ccc(O)cc4O)ccc(c23)C(=O)N1C(CO)CO`, the MIC in the experiment with Staphylococcus aureus [1] is 16 µg/mL (≈ 38 µM); in the experiment with Enterococcus faecalis, 16 µg/mL (≈ 38 µM); against Staphylococcus aureus [2], 16 µg/mL (≈ 38 µM); with Staphylococcus aureus [3], 16 µg/mL (≈ 38 µM); against Staphylococcus aureus [4], 64 µg/mL (≈ 152 µM); with Klebsiella pneumoniae, 4 µg/mL (≈ 9.49 µM). The MIC with Escherichia coli [5] amounted to 64 µg/mL (≈ 152 µM); against Pseudomonas aeruginosa [6], 64 µg/mL (≈ 152 µM); against Acinetobacter baumannii, 64 µg/mL (≈ 152 µM); against Pseudomonas aeruginosa [7], 32 µg/mL (≈ 75.9 µM); with Escherichia coli [8], 32 µg/mL (≈ 75.9 µM).
With `O=C1c2cccc3c(N/N=C/c4ccc(F)cc4F)ccc(c23)C(=O)N1C(CO)CO`, the MIC against Staphylococcus aureus [1] stood at 128 µg/mL (≈ 301 µM); in the experiment with Enterococcus faecalis, 128 µg/mL (≈ 301 µM); against Staphylococcus aureus [2], 256 µg/mL (≈ 602 µM); with Staphylococcus aureus [3] it was 32 µg/mL (≈ 75.2 µM); with Staphylococcus aureus [4], 16 µg/mL (≈ 37.6 µM); against Klebsiella pneumoniae it was 128 µg/mL (≈ 301 µM). Moreover, the minimum inhibitory concentration (MIC) against Escherichia coli [5], against Pseudomonas aeruginosa [6], against Acinetobacter baumannii, in the experiment on Pseudomonas aeruginosa [7] and with Escherichia coli [8] was 256 µg/mL (≈ 602 µM) each time.

The values above are taken from ChEMBL document CHEMBL5108027, “An unanticipated discovery of novel naphthalimidopropanediols as potential broad-spectrum antibacterial members” (Eur J Med Chem, 2022).
